Assay results taken from patent publication US20240079083A1, “USING BIPARTITE NETWORKS TO DETERMINE INTERACTIONS BETWEEN ANALYTES AND CHEMICAL TREATMENTS” (UT-Battelle, LLC, priority 2022, published 2024).

What was measured:
[1] = test system: Aspergillus fumigatus; test: Direct route: production of known and putative specialized metabolites under exogenous treatments, 25° C. (targeted LC-MS, bipartite network); assay type: cell-based; conditions: for broadcasting PageRank of the treatments: minimum-maximum normalized; for broadcasting PageRank of the treatments / node out-strength of the treatments (effect on triggering metabolite production): rank among treatments
Excerpt: (§1) Several examples of a bipartite network framework of treatments and metabolomic outputs will now be described. Bipartite networks are built to quantify the relationship between metabolites and the sources triggering their production, such as various exogenous biomolecules or compounds. As discussed above, a bipartite network (or graph) is a collection of nodes connected by lines named edges. The nodes represent the entities or elements of a system, and the edges represent the interaction or relationship amongst the features. For example, in cell metabolism, a metabolic network represents the biochemical reactions amongst substrates that result in products. The nodes of the metabolic network represent the substrates, and the edges represent the metabolic reactions amongst the substrates. For example, this framework can assess the effect of exogenous compounds on the production of specialized microbial metabolites. The nodes can be classified into two types: the treatments and the specialized metabolites, resulting in a bipartite network. The edges represent the magnitude of up- or down-regulation of specialized metabolites caused by the treatments compared to a controlled case (measured by the magnitude of log2 fold change using processed spectral data from targeted LC-MS analysis).
The bipartite network provides an in-depth quantification and clear visual representation of a treatment's ability to trigger the production of various specialized metabolites. Two routes are provided to assess specialized metabolite production using the bipartite network formulation, as shown in FIG. 15. The first is the direct route 1502 to determine the biosynthesis of known and putative metabolites, whereas the second is the auxiliary route 1504 to assess the production of unknown analytes. In the direct route 1502, the network nodes include treatments that elucidate known and putative metabolites by a microbe. Network centrality measurements 1506 are used to rank the treatments and the specialized metabolites. Those measurements can be used to identify the most influential nodes in the bipartite network. […] The treatments can be ranked based on their capability to trigger metabolite production, and the metabolites can be classified based on their popularity in being activated by various treatments. In the auxiliary route, the bipartite networks are built using analyte peaks extracted from post-processed spectral data. Further, the systems and methods of the present disclosure analyze the edges and neighborhoods of nodes to distinguish unique analytes among the total pool.
The bipartite network framework was used in this example to reveal the effect of various chitooligosaccharides and lipid treatments on triggering the production of specialized metabolites in Aspergillus fumigatus. Various chitooligosaccharides and lipids were applied as exogenous treatments since they are common constituents found in most fungi. Moreover, it has been previously shown that lipids influence fungal metabolomics; however, the impacts of chitooligosaccharides have remained unknown. In contrast, chitooligosaccharides are reported to have antifungal activity, which might potentially influence the metabolomic profile in Aspergillus species. This example highlights the influence of temperature on the production of specialized metabolites by conducting the experiments at 25 and 37° C. Aspergillus fumigatus is generally examined at 25° C. to explore the extent of its metabolomic capabilities or its lifestyle as a soilborne saprotroph that recycles environmental carbon and nitrogen. However, the fungus is also an opportunistic human pathogen and is commonly examined at 37° C. for its ability to cause aspergillosis, a lung disease found in immunocompromised patients. […]

[2] = test system: Aspergillus fumigatus; test: Auxiliary route: untargeted analytes under the treatments, 37° C.; assay type: cell-based
Excerpt: (§2) The auxiliary route follows an untargeted metabolomic profiling of the treatments. […] In the direct route, a peak area cutoff of 5×10^5 was used to detect signals with significant peaks between a treatment and solvent control. Although their peak area cutoff of 5×10^5 eliminates most noise, it is a linear cutoff and leaves some residual noise in the analysis due to column creep. Therefore, the dataset for the auxiliary route can be curated from the experimental study using baseline correction preprocessing tools. Following the processes defined by “Dynamics of Metabolite Induction in Fungal Co-cultures by Metabolomics at Both Volatile and Non-volatile Levels”, Front. Microbiol., 5 Feb. 2018 Sec. Antimicrobials, Resistance and Chemotherapy, Azzollini et al., peaks can be picked using GridMass and aligned using RANSAC alignment or another suitable alignment tool. Peak data can then be matched to known profiles in KEGG and LipidMap.
(§3) Peak significance was determined upon FCROS scoring. Non-significant analytes were not included in the network. An interactive map of the network illustrating the details of each analyte (m/z ratio, retention times, p-values, etc.) can be generated.
Considering the analytes from the network at 37° C. shown in FIG. 14D, twelve significant analyte peaks with log2 fold change intensities greater than 1 were extracted from the processed data. All three CO treatments at 37° C. triggered no shared analytes. Nor did the two lipid treatments trigger a shared analyte. Ten of the twelve analytes with log2 fold change intensities greater than 1 or less than −1 are uniquely triggered by a single treatment (i.e., analytes with node degree 1), as shown in FIG. 14D. Of the twelve significant extracted analyte peaks, eleven were identified from database queries. Analytes identified by KEGG were putative metabolites, hellebrigenin 3-acetate (ID 10), fraxetin (ID 16), beta-cyclopiazonate (ID 70), phenylbutazone (ID 71), borrerine (ID 89), clofibrate (ID 110), alangimarine (IDs 163 and 164), and sulindac (IDs 168 and 169). LipidMaps identified 6′-hydroxysiphonaxanthin decenoate (ID 21). […] There are no connections in ID numbers between the 25° C. and 37° C. experiments.

[3] = test system: Aspergillus fumigatus; test: Direct route: production of specialized metabolites under exogenous treatments, 37° C.; assay type: cell-based
Excerpt: as §1
The bipartite network provides an in-depth quantification and clear visual representation of a treatment's ability to trigger the production of various specialized metabolites. Two routes are provided to assess specialized metabolite production using the bipartite network formulation, as shown in FIG. 15. The first is the direct route 1502 to determine the biosynthesis of known and putative metabolites, whereas the second is the auxiliary route 1504 to assess the production of unknown analytes. In the direct route 1502, the network nodes include treatments that elucidate known and putative metabolites by a microbe. Network centrality measurements 1506 are used to rank the treatments and the specialized metabolites. […]

[4] = test system: Aspergillus fumigatus; conditions: 37° C.; cited from earlier work
[5] = test system: Aspergillus fumigatus; test: Auxiliary route: untargeted metabolomic profiling of the treatments, 25° C. (FCROS, bipartite network); assay type: cell-based
Excerpt: as §2, §3
The untargeted extraction of statistically relevant peaks using the auxiliary route can yield a significant number of analytes for potential exploration. The edges and neighbors of the nodes in the network can be used to determine which analytes to be first considered for targeted exploration. Analytes of particular interest express both […] depending on the treatment considered. Additionally, analytes of extreme up- and down-regulation can be of interest along with the node degree values of the analytes. FIG. 13D illustrates significant peaks with log2 fold change greater than 1 or less than −1. The total number of interactions (edges in the network) found with the auxiliary route is considerably higher compared to the network in the direct route. […] At 25 C, analytes ID 26 and ID 105 were matched to fraxetin via the KEGG database query. […] Analyte ID 222 was matched to ICAS #18 from the LipidMap database. […] At the same time, no single highly produced analyte is triggered by all three chitooligosaccharides.

Compound	broadcasting PageRank of the treatments [1]	node out-strength of the treatments (effect on triggering metabolite production) [1]	regulation of analyte 163 [2]	number of metabolites triggered [1]	number of unique metabolites triggered [1]	broadcasting PageRank of the treatments ([1]; listed as Oleic acid)	effectiveness of treatment at triggering metabolite production (node strength and PageRank) [3]	regulation of analyte 168 [2]	germination [4]	production of analyte 16 [5]	regulation of ICAS #18 (analyte ID 222) ([5]; with respect to the control)	regulation of analyte ID 90 [2]	regulation of fraxetin (analytes ID 26 and ID 105) ([5]; log2 fold change greater than 1 or less than −1)
CC(=O)N[C@H]1[C@H](O[C@H]2[C@H](O)[C@@H](NC(C)=O)[C@H](O[C@H]3[C@H](O)[C@@H](NC(C)=O)[C@H](O[C@H]4[C@H](O)[C@@H](NC(C)=O)C(O)O[C@@H]4CO)O[C@@H]3CO)O[C@@H]2CO)O[C@H](CO)[C@@H](O[C@@H]2O[C@H](CO)[C@@H](O[C@@H]3O[C@H](CO)[C@@H](O[C@@H]4O[C@H](CO)[C@@H](O[C@@H]5O[C@H](CO)[C@@H](O)[C@H](O)[C@H]5NC(C)=O)[C@H](O)[C@H]4NC(C)=O)[C@H](O)[C@H]3NC(C)=O)[C@H](O)[C@H]2NC(C)=O)[C@@H]1O (some centres unmarked) [CO8]	followed by CO8	minor influence on inducing metabolite production	upregulated										
CCCCCCCC/C=C\CCCCCCCC(=O)O [oleic acid]		then oleic acid		five	two	higher broadcasting PageRank value than CO5	poor at triggering the production of metabolites	downregulated	inducer of germination				
CC(=O)N[C@H]1[C@H](O[C@H]2[C@H](O)[C@@H](NC(C)=O)C(O)O[C@@H]2CO)O[C@H](CO)[C@@H](O[C@@H]2O[C@H](CO)[C@@H](O[C@@H]3O[C@H](CO)[C@@H](O)[C@H](O)[C@H]3NC(C)=O)[C@H](O)[C@H]2NC(C)=O)[C@@H]1O (some centres unmarked) [CO4]	most effective treatment	highest effect on triggering metabolite production	downregulated	six	two		poor at triggering the production of metabolites	downregulated		significantly produced			
CCCCCCCCCCCCCCCC(=O)O [palmitic acid]	least broadcasting PageRank measure	minor influence on inducing metabolite production	upregulated				most effective treatment on metabolite production	upregulated			significantly down regulates	upregulated	
CC(=O)N[C@H]1[C@H](O[C@H]2[C@H](O)[C@@H](NC(C)=O)[C@H](O[C@H]3[C@H](O)[C@@H](NC(C)=O)C(O)O[C@@H]3CO)O[C@@H]2CO)O[C@H](CO)[C@@H](O[C@@H]2O[C@H](CO)[C@@H](O[C@@H]3O[C@H](CO)[C@@H](O)[C@H](O)[C@H]3NC(C)=O)[C@H](O)[C@H]2NC(C)=O)[C@@H]1O (some centres unmarked) [CO5]					one					significantly produced		upregulated	upregulated
